The values below come from patent US8987195B2 (priority 2012, dated 2015).

The first assay has as its target HCV NS3/4A protease genotype 1b (Hepatitis C virus genotype 1b, UniProt P26663). Description: HCV NS3/4A protease time-resolved fluorescence (TRF) assay, Ki against genotype 1b. The class given is biochemical. The following applies: IC50 [gt-1b], NS3/4A protease TRF assay, genotype 1b enzyme 0.2 nM. As to the method: Measuring NS3/4A Inhibitory Activity (Ki) Against Genotype 1b, Against A156T Mutants and Against Genotype 3a
One assay for measuring inhibitory activity is HCV NS3 protease time-resolved fluorescence (TRF) assay as described below and in Mao et al., Anal. Biochem. 373:1-8, 2008 and International Patent Application Publication WO 2006/102087. A NS3 protease assay can be performed, for example, in a final volume of 20 μl assay buffer containing 50 mM HEPES, pH 7.5, 150 mM NaCl, 15% glycerol, 0.15% TRITON X-100, 10 mM DTT, and 0.1% PEG 8000. NS3 and NS4A protease is pre-incubated with various concentrations of inhibitors in DMSO for 30 min. The reaction is initiated by adding the TRF peptide substrate (final concentration 25 nM). NS3 mediated hydrolysis of the substrate was run for 2.5 hours at room temperature. Product fluorescence is detected using A Pherastar Plus plate reader (BMG) or Envision (Perkin Elmer Life and Analytical Sciences with excitation at 340 nm and emission at 615 nm using the appropriate delay time optimized for the europium fluorescence probe. Testing concentrations of different enzyme forms are selected to result in a signal to background ratio (S/B) of 10-30. IC50 values are derived using a standard four-parameter fit to the data. Ki values are derived from IC50 values using the following formula, IC50=Ki(1+[S]/KM), Eqn (1), where [S] is the concentration of substrate peptide in the reaction and KM is the Michaelis constant. See P. Gallinari et al., 38 BIOCHEM. 5620-32 (1999); P. Gallinari et al., 72 J. VIROL. 6758-69 (1998); M. Taliani et al., 240 ANAL. BIOCHEM. 60-67 (1996); Mao et al., Analytical Biochemistry 373: 1-8, 2008.
The assay described above was run against genotype 1b at a concentration of 0.2 nM, against A156T mutant strains at a concentration of 0.4 nM, and against genotype 3a at a concentration of 0.025 nM.
Molecule `COc1cc(Cl)c2nc(C(F)(F)F)c3c(c2c1)CC[C@]1(C[C@H]2C(=O)N[C@]4(C(=O)NS(=O)(=O)C5(C)CC5)C[C@H]4/C=C\CCCCC[C@H](NC(=O)OC(C)(C)C(F)(F)F)C(=O)N2C1)O3` [Example 400, 1,1,1-trifluoro-2-methylpropan-2-yl [(2R,6S,12Z,13aS,14aR,16aS)-7′-chloro-9′-methoxy-14a-{[(1-methylcyclopropyl)sulfonyl]carbamoyl}-5,16-dioxo-5′-(trifluoromethyl)-1,1′,2′,5,6,7,8,9,10,11,13a,14,14a,15,16,16a-hexadecahydrospiro[cyclopropa[e]pyrrolo[1,2-a][1,4]diazacyclopentadecine-2,3′-pyrano[2,3-c]quinolin]-6-yl]carbamate] gave a half-inhibitory concentration (IC50) of 52 pM.
The same measure, in the same setting: with `COc1cc(Cl)c2nc(C(F)(F)F)c3c(c2c1)CC[C@]1(C[C@H]2C(=O)N[C@]4(C(=O)NS(=O)(=O)C5(C)CC5)C[C@H]4/C=C\CCCCC[C@H](NC(=O)OCC(C)(C)C)C(=O)N2C1)O3` [Example 401, 2,2-dimethylpropyl [(2R,6S,12Z,13aS,14aR,16aS)-7′-chloro-9′-methoxy-14a-{[(1-methylcyclopropyl)sulfonyl]carbamoyl}-5,16-dioxo-5′-(trifluoromethyl)-1,1′,2′,5,6,7,8,9,10,11,13a,14,14a,15,16,16a-hexadecahydrospiro[cyclopropa[e]pyrrolo[1,2-a][1,4]diazacyclopentadecine-2,3′-pyrano[2,3-c]quinolin]-6-yl]carbamate] the figure was 57 pM.
Same read-out and setting: the result for `COc1ccc2nc(C(F)(F)F)c3c(c2c1)[C@](C)(O)C[C@]1(C[C@H]2C(=O)N[C@]4(C(=O)NS(=O)(=O)C5(C)CC5)C[C@H]4/C=C\CCCCC[C@H](NC(=O)OCC(C)C)C(=O)N2C1)O3` [Example 505, 2-methylpropyl [(1′R,2S,6S,12Z,13aS,14aR,16aS)-1′-hydroxy-9′-methoxy-1′-methyl-14a-{[(1-methylcyclopropyl)sulfonyl]carbamoyl}-5,16-dioxo-5′-(trifluoromethyl)-1,1′,2′,5,6,7,8,9,10,11,13a,14,14a,15,16,16a-hexadecahydrospiro[cyclopropa[e]pyrrolo[1,2-a][1,4]diazacyclopentadecine-2,3′-pyrano[2,3-c]quinolin]-6-yl]carbamate] reads 16 pM; that for `COc1ccc2nc(C(F)(F)F)c3c(c2c1)[C@](C)(O)C[C@]1(C[C@H]2C(=O)N[C@]4(C(=O)NS(=O)(=O)C5(C)CC5)C[C@H]4/C=C\CCCCC[C@H](NC(=O)OCC(C)(C)C)C(=O)N2C1)O3` [Example 506, 2,2-dimethylpropyl [(1′R,2S,6S,12Z,13aS,14aR,16aS)-1′-hydroxy-9′-methoxy-1′-methyl-14a-{[(1-methylcyclopropyl)sulfonyl]carbamoyl}-5,16-dioxo-5′-(trifluoromethyl)-1,1′,2′,5,6,7,8,9,10,11,13a,14,14a,15,16,16a-hexadecahydrospiro[cyclopropa[e]pyrrolo[1,2-a][1,4]diazacyclopentadecine-2,3′-pyrano[2,3-c]quinolin]-6-yl]carbamate], 15 pM.

Staying with this assay, now noted: IC50 [gt-1b], NS3/4A protease TRF assay, genotype 1b enzyme 0.2 nM; HCl salt.
As to `CCc1nc2ccc(OCCCN3CCOCC3)cc2c2c1O[C@]1(CC2)C[C@H]2C(=O)N[C@]3(C(=O)NS(=O)(=O)C4(C)CC4)C[C@H]3/C=C\CCCCC[C@H](NC(=O)OCC(C)(C)C)C(=O)N2C1` [Example 521, 2,2-dimethylpropyl {(2R,6S,12Z,13aS,14aR,16aS)-5′-ethyl-14a-{[(1-methylcyclopropyl)sulfonyl]carbamoyl}-9′-[3-(morpholin-4-yl)propoxy]-5,16-dioxo-1,1′,2′,5,6,7,8,9,10,11,13a,14,14a,15,16,16a-hexadecahydrospiro[cyclopropa[e]pyrrolo[1,2-a][1,4]diazacyclopentadecine-2,3′-pyrano[2,3-c]quinolin]-6-yl}carbamate], the IC50 was 4 pM.

Staying with this assay, now noted: IC50 [gt-1b], NS3/4A protease TRF assay, genotype 1b enzyme 0.2 nM; K+ salt.
Consider `COc1ccc2nc(C(F)F)c3c(c2c1)CC[C@]1(C[C@H]2C(=O)NC4(C(=O)NS(=O)(=O)C5(C)CC5)C[C@H]4/C=C\CCCCC[C@H](NC(=O)O[C@@H]4C[C@@H]5C[C@@H]5C4)C(=O)N2C1)O3` (stereo partly drawn) [Example 503, (1R,3r,5S)-bicyclo[3.1.0]hex-3-yl [(2R,6S,12Z,13aS,14aR,16aS)-5′-(difluoromethyl)-9′-methoxy-14a-{[(1-methylcyclopropyl)sulfonyl]carbamoyl}-5,16-dioxo-1,1′,2′,5,6,7,8,9,10,11,13a,14,14a,15,16,16a-hexadecahydrospiro[cyclopropa[e]pyrrolo[1,2-a][1,4]diazacyclopentadecine-2,3′-pyrano[2,3-c]quinolin]-6-yl]carbamate], for which the IC50 was 7 pM.
Turning to `COc1ccc2nc(C(F)F)c3c(c2c1)CC[C@]1(C[C@H]2C(=O)N[C@]4(C(=O)NS(=O)(=O)C5(C)CC5)C[C@H]4/C=C\CCCCC[C@H](NC(=O)OCC4CCC4)C(=O)N2C1)O3` [Example 504, cyclobutylmethyl [(2R,6S,12Z,13aS,14aR,16aS)-5′-(difluoromethyl)-9′-methoxy-14a-{[(1-methylcyclopropyl)sulfonyl]carbamoyl}-5,16-dioxo-1,1′,2′,5,6,7,8,9,10,11,13a,14,14a,15,16,16a-hexadecahydrospiro[cyclopropa[e]pyrrolo[1,2-a][1,4]diazacyclopentadecine-2,3′-pyrano[2,3-c]quinolin]-6-yl]carbamate], the 50% inhibitory concentration (IC50) was 10 pM.
The same measure, in the same setting: the result for `COc1ccc2nc(C(F)F)c3c(c2c1)CC[C@]1(C[C@H]2C(=O)N[C@]4(C(=O)NS(=O)(=O)C5(C)CC5)C[C@H]4/C=C\CCCCC[C@H](NC(=O)OC4CCC4)C(=O)N2C1)O3` [Example 508, cyclobutyl [(2R,6S,12Z,13aS,14aR,16aS)-5′-(difluoromethyl)-9′-methoxy-14a-{[(1-methylcyclopropyl)sulfonyl]carbamoyl}-5,16-dioxo-1,1′,2′,5,6,7,8,9,10,11,13a,14,14a,15,16,16a-hexadecahydrospiro[cyclopropa[e]pyrrolo[1,2-a][1,4]diazacyclopentadecine-2,3′-pyrano[2,3-c]quinolin]-6-yl]carbamate] reads 4 pM; that for `CCc1nc2ccc(OCCN3CCOCC3)cc2c2c1O[C@]1(CC2)C[C@H]2C(=O)N[C@]3(C(=O)NS(=O)(=O)C4(C)CC4)C[C@H]3/C=C\CCCCC[C@H](NC(=O)OC3(C)CCC3)C(=O)N2C1` [Example 509, 1-methylcyclobutyl {(2R,6S,12Z,13aS,14aR,16aS)-5′-ethyl-14a-{[(1-methylcyclopropyl)sulfonyl]carbamoyl}-9′-[2-(morpholin-4-yl)ethoxy]-5,16-dioxo-1,1′,2′,5,6,7,8,9,10,11,13a,14,14a,15,16,16a-hexadecahydrospiro[cyclopropa[e]pyrrolo[1,2-a][1,4]diazacyclopentadecine-2,3′-pyrano[2,3-c]quinolin]-6-yl}carbamate], 6 pM.
On the same count and under the same terms, the result for `CCc1nc2ccc(OCCN3CCOCC3)cc2c2c1O[C@]1(CC2)C[C@H]2C(=O)N[C@]3(C(=O)NS(=O)(=O)C4(C)CC4)C[C@H]3/C=C\CCCCC[C@H](NC(=O)OCC(C)(C)C)C(=O)N2C1` [Example 510, 2,2-dimethylpropyl {(2R,6S,12Z,13aS,14aR,16aS)-5′-ethyl-14a-{[(1-methylcyclopropyl)sulfonyl]carbamoyl}-9′-[2-(morpholin-4-yl)ethoxy]-5,16-dioxo-1,1′,2′,5,6,7,8,9,10,11,13a,14,14a,15,16,16a-hexadecahydrospiro[cyclopropa[e]pyrrolo[1,2-a][1,4]diazacyclopentadecine-2,3′-pyrano[2,3-c]quinolin]-6-yl}carbamate] reads 4 pM; that for `COCCCOc1ccc2nc(C(F)(F)F)c3c(c2c1)CC[C@]1(C[C@H]2C(=O)N[C@]4(C(=O)NS(=O)(=O)C5(C)CC5)C[C@H]4/C=C\CCCCC[C@H](NC(=O)OC4(C)CCC4)C(=O)N2C1)O3` [Example 523, 1-methylcyclobutyl [(2R,6S,12Z,13aS,14aR,16aS)-9′-(3-methoxypropoxy)-14a-{[(1-methylcyclopropyl)sulfonyl]carbamoyl}-5,16-dioxo-5′-(trifluoromethyl)-1,1′,2′,5,6,7,8,9,10,11,13a,14,14a,15,16,16a-hexadecahydrospiro[cyclopropa[e]pyrrolo[1,2-a][1,4]diazacyclopentadecine-2,3′-pyrano[2,3-c]quinolin]-6-yl]carbamate], 9 pM.

What is called IC50 is the midpoint of a concentration-inhibition curve.
